{"source": "PubChem BioAssay AID652110", "about": "(The Scripps Research Institute Molecular Screening Center, 2013)", "note": "The source made the active and inactive calls. The rule behind the calls is not given here."}
{"target": "Serine/threonine-protein phosphatase PP1-alpha catalytic subunit (Homo sapiens) (UniProt P62136)", "sequence (P62136 whole entry, looked up)": "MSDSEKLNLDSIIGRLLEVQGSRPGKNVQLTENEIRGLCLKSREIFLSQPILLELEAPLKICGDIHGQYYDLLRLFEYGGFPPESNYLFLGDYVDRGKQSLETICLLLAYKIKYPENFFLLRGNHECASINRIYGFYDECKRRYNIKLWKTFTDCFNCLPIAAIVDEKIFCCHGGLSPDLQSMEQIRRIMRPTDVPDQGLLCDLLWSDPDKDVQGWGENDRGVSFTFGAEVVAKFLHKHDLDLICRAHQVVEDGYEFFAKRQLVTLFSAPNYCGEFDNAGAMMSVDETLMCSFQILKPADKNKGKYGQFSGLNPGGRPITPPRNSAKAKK", "assay": "PP1 inhibitors on glycogen phosphorylase dephosphorylation, late-stage follow-up, PP1 inhibitor probe project, biochemical, radiolabel, 32P-phosphorylase substrate, single concentration (AID 652110)", "conditions": "PP1 dephosphorylation of 32P-glycogen phosphorylase, at 50 µM, hits give high values"}
{"smiles": "Cc1nnc(NC(=O)C2C3C=CC(O3)C2C(=O)O)s1", "note": "(stereo not given)", "inhibition": "56.1% (inactive)"}
{"smiles": "Cc1cc(C)c(S(=O)(=O)/N=C2\\C=C(Sc3ncn[nH]3)C(=O)c3ccccc32)cc1C", "inhibition": "30.5% (inactive)"}
{"smiles": "CCOC(=O)c1cnc(-n2nc(C)cc2C)nc1NCc1ccccc1", "inhibition": "7.11% (inactive)"}
{"smiles": "O=C(O)c1n[nH]nc1-c1ccccc1", "inhibition": "22.4% (inactive)"}
{"smiles": "O=C(NC1(O)C(=O)c2ccccc2C1=O)c1ccccc1", "inhibition": "30.4% (inactive)"}
{"smiles": "COc1ccc(NC(=S)Nc2ccc3nsnc3c2)cc1", "inhibition": "13.3% (inactive)"}
{"smiles": "O=C(O)c1cc(-c2ccc(Cl)cc2)n(-c2cccc(Cl)c2)n1", "inhibition": "12% (inactive)"}
{"smiles": "Nc1cc2nsnc2cc1Br", "inhibition": "27.9% (inactive)"}
{"smiles": "COc1cnc(-c2ccccn2)nc1Sc1ccccc1", "inhibition": "0.752% (inactive)"}
{"smiles": "O=S(=O)(Cc1cc(NCc2ccccc2)nc(-c2ccccn2)n1)c1ccccc1", "inhibition": "11.7% (inactive)"}
{"smiles": "COc1ccc(OCCCC(=O)Nc2nc(-c3ccccn3)cs2)cc1", "inhibition": "19.4% (inactive)"}
{"smiles": "O=C(O)c1cc(-c2ccc(Cl)c(Cl)c2)n(-c2ccccc2)n1", "inhibition": "12.2% (inactive)"}
{"smiles": "O=c1[nH]c(Nc2ccccc2)cc2ccccc12", "inhibition": "19% (inactive)"}
{"smiles": "COc1cnc(-c2ccccn2)nc1Sc1ccccc1Cl", "inhibition": "9.17% (inactive)"}
{"smiles": "CCn1c2ccccc2c2cc(NC(=O)COC(=O)c3ccc(NC(=O)CC#N)cc3)ccc21", "inhibition": "74.6%"}
{"smiles": "Oc1cccc(/C=N/Nc2cc(N3CCCC3)nc(N3CCCC3)n2)c1", "inhibition": "20.3% (inactive)"}
{"smiles": "COc1cnc(-c2ccccn2)nc1Oc1cccc(C(F)(F)F)c1", "inhibition": "0.507% (inactive)"}
{"smiles": "CCOC(=O)c1cnc(-n2nc(C)cc2C)nc1NC1CCCCC1", "inhibition": "16.3% (inactive)"}
{"smiles": "COc1ccccc1Sc1nc(-c2ccccn2)ncc1OC", "inhibition": "-0.402% (inactive)"}
{"smiles": "COc1ccc(C(=O)c2nccc3cc(OC)c(OC)cc23)cc1OC", "inhibition": "9.58% (inactive)"}
{"smiles": "COc1cnc(-c2ccccn2)nc1Sc1ccc(Cl)cc1", "inhibition": "12.2% (inactive)"}
{"smiles": "COc1cnc(-c2ccccn2)nc1Oc1cccc(Cl)c1", "inhibition": "3.5% (inactive)"}
{"smiles": "CC(C)(CS(=O)(=O)[O-])NC(=O)CC[N+](C)(C)CCO", "inhibition": "3.71% (inactive)"}
{"smiles": "Clc1ccc(-n2nnnc2-c2cnc(-c3ccccn3)nc2-c2cccs2)cc1", "inhibition": "0.651% (inactive)"}
{"smiles": "O=C(O)C1C2CCC(O2)C1C(=O)NC1CCCCC1", "note": "(stereo not given)", "inhibition": "66.1% (inactive)"}
{"smiles": "CCOC(=O)c1cnc(-n2nc(C)cc2C)nc1NC(C)c1ccccc1", "note": "(stereo not given)", "inhibition": "15.8% (inactive)"}
{"smiles": "COc1ccc(NC(=O)C2C3CCC(O3)C2C(=O)O)c(OC)c1", "note": "(stereo not given)", "inhibition": "73.9%"}
{"smiles": "CCOC(=O)c1cnc(-n2cc(C)cn2)nc1NCc1ccc2c(c1)OCO2", "inhibition": "21.6% (inactive)"}
{"smiles": "N#Cc1c(N2CCCC(O)C2)nc(N)c2c(N)nc3c(c12)CC(=O)N3C12CC3CC(CC(C3)C1)C2", "note": "(stereo not given)", "inhibition": "24.2% (inactive)"}
{"smiles": "COc1ccc2c(Cl)c(C(=O)N/N=C/c3ccc4c(c3)OCO4)sc2c1", "inhibition": "33.4% (inactive)"}
{"smiles": "CCOc1ccc(NC(=S)Nc2ccc3nsnc3c2)cc1", "inhibition": "9.35% (inactive)"}
{"smiles": "c1ccc(Nc2nc(-c3ccccn3)cs2)cc1", "inhibition": "13.2% (inactive)"}
{"smiles": "CC(=O)C(C(C)=O)C1(O)C(=O)c2ccccc2C1=O", "inhibition": "24.6% (inactive)"}
{"smiles": "COc1cnc(-c2ccccn2)nc1Sc1cccc(Cl)c1", "inhibition": "23% (inactive)"}
{"smiles": "CCCN(CC1CC1)c1nc(N)c2c(N)nc(OC)cc2c1C#N", "inhibition": "8.48% (inactive)"}
{"smiles": "COc1cnc(-c2ccccn2)nc1Sc1ccc(C)cc1", "inhibition": "9.79% (inactive)"}
{"smiles": "COc1ccc(Cn2c(N)c(C(=O)NCc3ccco3)c3nc4ccccc4nc32)cc1OC", "inhibition": "8.99% (inactive)"}
{"smiles": "Cc1ccc(-n2nc(C(=O)O)cc2-c2ccc(Cl)cc2)cc1", "inhibition": "5.4% (inactive)"}
{"smiles": "CCCCN(CC)c1nc(N)c2c(N)nc(OCC)cc2c1C#N", "inhibition": "17.2% (inactive)"}
{"smiles": "COc1cc(Br)c(C(=O)c2nccc3cc(OC)c(OC)cc23)cc1OC", "inhibition": "9.5% (inactive)"}
{"smiles": "Cc1ccc(C(=O)NC2(O)C(=O)c3ccccc3C2=O)cc1C", "inhibition": "29.6% (inactive)"}
{"smiles": "O=C(NC1(O)C(=O)c2ccccc2C1=O)c1ccc(C(F)(F)F)cc1", "inhibition": "39.2% (inactive)"}
{"smiles": "CCOC(=O)C1=C(C)OC2(O)c3ccccc3C(=O)C12O", "note": "(stereo not given)", "inhibition": "17.4% (inactive)"}
{"smiles": "Cc1[nH]n(-c2ccccc2)c(=O)c1C(c1ccc([N+](=O)[O-])cc1)c1c(C)[nH]n(-c2ccccc2)c1=O", "inhibition": "48.3% (inactive)"}
{"smiles": "CCOC(=O)c1cnc(-n2nc(C)cc2C)nc1NCCc1ccccc1", "inhibition": "16.9% (inactive)"}
{"smiles": "O=C(NC1(O)C(=O)c2ccccc2C1=O)c1c(Cl)cccc1Cl", "inhibition": "33.1% (inactive)"}
{"smiles": "Cc1ccc(C(=O)NNc2cc(N3CCCC3)nc(N3CCCC3)n2)cc1", "inhibition": "14.4% (inactive)"}
{"smiles": "CCOC(=O)c1sc(N2C(=O)C(O)=C(C(=O)c3ccco3)C2c2cccc([N+](=O)[O-])c2)nc1C", "note": "(stereo not given)", "inhibition": "51.3% (inactive)"}
{"smiles": "CCCCn1c(NC(=O)c2ccco2)c(C(=O)OCC)c2nc3ccccc3nc21", "inhibition": "29.8% (inactive)"}
{"smiles": "O=C1Nc2ccccc2N2CCCC12", "note": "(stereo not given)", "inhibition": "9.82% (inactive)"}
{"smiles": "Nc1nc(-c2ccccn2)nc(N)c1Cc1ccc(Cl)cc1Cl", "inhibition": "22.1% (inactive)"}
{"smiles": "O=C1CCCC2=C1C1(O)C(=O)c3ccccc3C1(O)O2", "note": "(stereo not given)", "inhibition": "19.8% (inactive)"}
{"smiles": "N#Cc1c(-c2ccc(Cl)cc2)cc(-c2cccs2)nc1SCC(=O)O", "inhibition": "81.6%"}
{"smiles": "COc1cnc(-c2ccccn2)nc1Sc1ccc(F)cc1", "inhibition": "3.69% (inactive)"}
{"smiles": "c1ccc(-c2nccc(-c3ccc(-n4cnc5ccccc54)cc3)n2)nc1", "inhibition": "43% (inactive)"}
{"smiles": "O=C(Nc1nc(-c2ccccn2)cs1)C1CC(=O)N(c2ccc3c(c2)OCCO3)C1", "note": "(stereo not given)", "inhibition": "19.7% (inactive)"}
{"smiles": "CN1CCN(C(c2ccccn2)c2cc(Cl)c3cccnc3c2O)CC1", "note": "(stereo not given)", "inhibition": "97%"}
{"smiles": "O=C(O)c1cc(-c2ccc(Cl)c(Cl)c2)n(-c2ccc(F)cc2)n1", "inhibition": "8.75% (inactive)"}
{"smiles": "COc1ccc(Sc2nc(-c3ccccn3)ncc2OC)cc1", "inhibition": "-0.0224% (inactive)"}
{"smiles": "COc1ccc(Cl)cc1C(=O)Nc1cccc(-c2ccc3nncn3n2)c1", "inhibition": "61.7% (inactive)"}
{"smiles": "CCOC(=O)c1nn(-c2ccc(C)cc2)c(=O)c2c(N)scc12", "inhibition": "12.3% (inactive)"}
{"smiles": "CCOC(=O)c1sc2nc3c(SCC(=O)O)cc(C(=O)c4cc(F)ccc4O)cn3c(=O)c2c1C", "inhibition": "92.2%"}
{"smiles": "COc1ccc(CN2C(=O)Cc3c2nc(N)c2c(N)nc(N4CCCCC4)c(C#N)c32)cc1", "inhibition": "45.7% (inactive)"}
{"smiles": "Oc1ccc(/C=N/Nc2cc(N3CCOCC3)nc(N3CCOCC3)n2)c(O)c1", "inhibition": "20.3% (inactive)"}
{"smiles": "Oc1ccccc1/C=N/Nc1cc(N2CCCC2)nc(N2CCCC2)n1", "inhibition": "17.2% (inactive)"}
